Read-outs that look alike come from different tables or passages of the source.
Tests used:
[1] = tested on: HeLa human cervical tumor cells; assay: Proliferation assay (HeLa cell line); details: 96 h, read-out: Biological Assay 2: Proliferation assay (HeLa cell line) median IC50;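 note: crystal violet staining, absorbance at 595 nm, 0.001–10 µM test range, 4-day exposure, 0% is cell number at dosing and 100% untreated growth, IC50 from 4-parameter fit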
Experimental: Cultivated HeLa human cervical tumor cells (cells were ordered from ATCC CCL-2) were plated at a density of 3000 cells/well in a 96-well multititer plates in 200 microL DMEM/HAMS F12 culture medium (Biochrom F4815) supplemented with 10% fetal calf serum. After 24 hours, the cells of one plate (zero-point plate) were stained with crystal violet (see below), while the medium of the other plates was replaced by fresh culture medium (200 microL) containing the test substances in various concentrations (0 microM, as well as in the range of 0.001-10 microM; the final concentration of the solvent dimethyl sulfoxide was 0.5%). The cells were incubated for 4 days in the presence of test substances. Cell proliferation was determined by staining the cells with crystal violet: the cells were fixed by adding 20 microL/measuring point of an 11% glutaric aldehyde solution for 15 minutes at room temperature. After three washing cycles of the fixed cells with water, the plates were dried at room temperature. The cells were stained by adding 100 microL/measuring point of a 0.1% crystal violet solution (pH 3.0). After three washing cycles of the stained cells with water, the plates were dried at room temperature. The dye was dissolved by adding 100 microL/measuring point of a 10% acetic acid solution. Absorption was determined by photometry at a wavelength of 595 nm. The change of cell number, in percent, was calculated by normalization of the measured values to the absorption values of the zero-point plate (=0%) and the absorption of the untreated (0 microM) cells (=100%). The IC50 values were determined by means of a 4 parameter fit.

[2] = biological target: T1, catalytic domain of human Bub1 (amino acids 704-1085) (Homo sapiens, UniProt O43683); assay: Bub1 kinase assay (TR-FRET); assay type: biochemical
T1 construct: catalytic domain of human Bub1 (amino acids 704-1085); His6 (N); made in house; host or cells: Hi5 insect cells
Experimental: To this end, 100-fold concentrated compound solutions (in DMSO) were previously prepared by serial dilution (1:3.4) of 2 mM stocks in a clear low volume 384-well source microtiter plate (Greiner Bio-One, Frickenhausen, Germany), from which 50 nL of compounds were transferred into a black low volume test microtiter plate from the same supplier. […] The resulting mixture (5 μL final volume) was incubated at 22° C. during 60 min., and the reaction was stopped by the addition of 5 μL of an aqueous EDTA-solution (50 mM EDTA, in 100 mM HEPES pH 7.5 and 0.2% (w/v) bovine serum albumin) which also contained the TR-FRET detection reagents (0.2 μM streptavidin-XL665 [Cisbio Bioassays, Codolet, France] and 1 nM anti-phoshoSerine antibody [Merck Millipore, cat. #35-001] and 0.4 nM LANCE EU-W1024 labeled anti-mouse IgG antibody [Perkin-Elmer, product no. AD0077, alternatively a Terbium-cryptate-labeled anti-mouse IgG antibody from Cisbio Bioassays can be used]). The stopped reaction mixture was further incubated 1 h at 22° C. in order to allow the formation of complexes between peptides and detection reagents. Subsequently, the amount of product was evaluated by measurement of the resonance energy transfer from the Eu-chelate-antibody complex recognizing the Phosphoserine residue to the streptavidin-XL665 bound to the biotin moiety of the peptide. […] IC50 values were calculated by fitting the normalized inhibition data to a 4-parameter logistic equation (Minimum, Maximum, IC50, Hill; Y=Max+(Min−Max)/(1+(X/IC50)Hill)).

[3] = TR-FRET, recombinant catalytic domain of human Bub1, ATP 10 μM, peptide substrate 1 μM, 60 min at 22° C., read-out: Biological Assay 1: Bub1 kinase assay median IC50

T1 sequence (O43683 704-1085): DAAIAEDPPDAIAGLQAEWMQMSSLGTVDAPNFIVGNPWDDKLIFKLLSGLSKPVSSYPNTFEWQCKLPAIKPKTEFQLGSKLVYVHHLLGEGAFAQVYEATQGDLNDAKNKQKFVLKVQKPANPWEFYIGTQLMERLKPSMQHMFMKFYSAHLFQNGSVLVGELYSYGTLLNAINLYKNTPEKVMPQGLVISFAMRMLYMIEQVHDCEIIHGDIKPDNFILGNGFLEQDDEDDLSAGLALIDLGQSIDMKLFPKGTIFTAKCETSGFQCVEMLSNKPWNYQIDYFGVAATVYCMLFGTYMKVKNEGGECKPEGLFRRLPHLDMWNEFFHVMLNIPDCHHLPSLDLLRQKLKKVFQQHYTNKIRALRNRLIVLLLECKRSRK

SMILES	IC50 [1]	IC50 [2]	IC50 [2, 3]
COc1cnc(-c2nn(Cc3nnc(C)o3)c3ccccc23)nc1Nc1ccncc1C(N)=O [Example 2-2-13, 4-[(5-methoxy-2-{1-[(5-methyl-1,3,4-oxadiazol-2-yl)methyl]-1H-indazol-3-yl}pyrimidin-4-yl)amino]nicotinamide]	> 10000 nM	22 nM	–
CNC(=O)c1nc(Cn2nc(-c3ncc(OC)c(Nc4ccncc4)n3)c3ccccc32)no1 [Example 2-2-5, 3-({3-[5-methoxy-4-(pyridin-4-ylamino)pyrimidin-2-yl]-1H-indazol-1-yl}methyl)-N-methyl-1,2,4-oxadiazole-5-carboxamide]	> 10000 nM	–	540 nM
COc1cnc(-c2nn(Cc3nsc(N)n3)c3ccccc23)nc1Nc1ccncc1 [Example 2-2-3, 2-{1-[(5-amino-1,2,4-thiadiazol-3-yl)methyl]-1H-indazol-3-yl}-5-methoxy-N-(pyridin-4-yl)pyrimidin-4-amine]	> 10000 nM	–	54 nM
COc1cnc(-c2nn(Cc3ncc(F)cc3F)c3ccccc23)nc1Nc1ccncc1 [Example 2-1-2, 2-{1-[(3,5-difluoropyridin-2-yl)methyl]-1H-indazol-3-yl}-5-methoxy-N-(pyridin-4-yl)pyrimidin-4-amine]	> 10000 nM	9 nM	–
COc1cnc(-c2nn(Cc3c(Cl)cnn3C)c3ccccc23)nc1Nc1ccncc1 [Example 2-2-1, 2-{1-[(4-chloro-1-methyl-1H-pyrazol-5-yl)methyl]-1H-indazol-3-yl}-5-methoxy-N-(pyridin-4-yl)pyrimidin-4-amine]	> 10000 nM	–	8.9 nM
CNC(=O)c1cnccc1Nc1nc(-c2nn(Cc3cc(C(C)C)no3)c3ccccc23)ncc1OC [Example 2-2-12, 4-[(2-{1-[(3-isopropyl-1,2-oxazol-5-yl)methyl]-1H-indazol-3-yl}-5-methoxypyrimidin-4-yl)amino]-N-methylnicotinamide]	> 10000 nM	5.7 nM	–
COc1cnc(-c2nn(Cc3c(C)noc3C)c3ccccc23)nc1Nc1ccncc1 [Example 2-1-3, 2-{1-[(3,5-dimethyl-1,2-oxazol-4-yl)methyl]-1H-indazol-3-yl}-5-methoxy-N-(pyridin-4-yl)pyrimidin-4-amine]	> 10000 nM	–	30 nM
COCc1noc(Cn2nc(-c3ncc(OC)c(Nc4ccncc4)n3)c3ccccc32)n1 [Example 2-2-4, 5-methoxy-2-(1-{[3-(methoxymethyl)-1,2,4-oxadiazol-5-yl]methyl}-1H-indazol-3-yl)-N-(pyridin-4-yl)pyrimidin-4-amine]	> 10000 nM	–	280 nM
COCc1noc(Cn2nc(-c3ncc(OC)c(Nc4ccncc4C(N)=O)n3)c3ccccc32)n1 [Example 2-2-10, 4-{[5-methoxy-2-(1-{[3-(methoxymethyl)-1,2,4-oxadiazol-5-yl]methyl}-1H-indazol-3-yl)pyrimidin-4-yl]amino}nicotinamide]	> 10000 nM	4.8 nM	–
COc1cnc(-c2nn(Cc3cc(=O)[nH]c(=O)[nH]3)c3ccccc23)nc1Nc1ccncc1 [Example 2-2-7, 6-({3-[5-methoxy-4-(pyridin-4-ylamino)pyrimidin-2-yl]-1H-indazol-1-yl}methyl)pyrimidine-2,4(1H,3H)-dione]	> 10000 nM	3100 nM	–
CNC(=O)c1cnccc1Nc1nc(-c2nn(Cc3nc(COC)no3)c3ccccc23)ncc1OC [Example 2-2-8, 4-{[5-methoxy-2-(1-{[3-(methoxymethyl)-1,2,4-oxadiazol-5-yl]methyl}-1H-indazol-3-yl)pyrimidin-4-yl]amino}-N-methylnicotinamide]	> 10000 nM	–	17 nM
COc1cnc(-c2nn(Cc3cnn(C)c3C)c3ccccc23)nc1Nc1ccncc1 [Example 2-1-4, 2-{1-[(1,5-dimethyl-1H-pyrazol-4-yl)methyl]-1H-indazol-3-yl}-5-methoxy-N-(pyridin-4-yl)pyrimidin-4-amine]	> 10000 nM	–	42 nM

Results, then the compound that gave them:

IC50 [1]	IC50 [2]	IC50 [2, 3]	SMILES
> 10000 nM	150 nM	–	Cc1noc(C)c1Cn1nc(-c2nc(Nc3ccncn3)cc(Nc3ccncn3)n2)c2ccccc21 [Example 2-3-5, 2-{1-[(3,5-dimethyl-1,2-oxazol-4-yl)methyl]-1H-indazol-3-yl}-N,N′-di(pyrimidin-4-yl)pyrimidine-4,6-diamine]
> 10000 nM	–	870 nM	COc1cnc(-c2nn(Cc3nnc(C)o3)c3ccccc23)nc1Nc1ccncc1 [Example 2-2-14, 5-methoxy-2-{1-[(5-methyl-1,3,4-oxadiazol-2-yl)methyl]-1H-indazol-3-yl}-N-(pyridin-4-yl)pyrimidin-4-amine]
4400 nM	–	46 nM	COc1cnc(-c2nn(Cc3nn(C)cc3Cl)c3ccccc23)nc1Nc1ccncc1 [Example 2-2-2, 2-{1-[(4-chloro-1-methyl-1H-pyrazol-3-yl)methyl]-1H-indazol-3-yl}-5-methoxy-N-(pyridin-4-yl)pyrimidin-4-amine]
4000 nM	330 nM	–	Cc1noc(C)c1Cn1nc(-c2nc(Nc3ccncc3)cc(Nc3ccncc3)n2)c2ccccc21 [Example 2-3-4, 2-{1-[(3,5-dimethyl-1,2-oxazol-4-yl)methyl]-1H-indazol-3-yl}-N,N′-di(pyridin-4-yl)pyrimidine-4,6-diamine]
3900 nM	6.9 nM	–	COc1cnc(-c2nn(Cc3cc(C(C)C)no3)c3ccccc23)nc1Nc1ccncc1C(N)=O [Example 2-2-9, 4-[(2-{1-[(3-isopropyl-1,2-oxazol-5-yl)methyl]-1H-indazol-3-yl}-5-methoxypyrimidin-4-yl)amino]nicotinamide]
2600 nM	8.4 nM	–	COc1cnc(-c2nn(Cc3c(Cl)ccnc3Cl)c3ccccc23)nc1Nc1ccncc1 [Example 2-1-1, 2-{1-[(2,4-dichloropyridin-3-yl)methyl]-1H-indazol-3-yl}-5-methoxy-N-(pyridin-4-yl)pyrimidin-4-amine]
6700 nM	16 nM	–	Cc1noc(C)c1Cn1nc(-c2nc(N)cc(Nc3ccncc3)n2)c2ccccc21 [Example 2-3-2, 2-{1-[(3,5-dimethyl-1,2-oxazol-4-yl)methyl]-1H-indazol-3-yl}-N-(pyridin-4-yl)pyrimidine-4,6-diamine]

— US20160046604A1, “HETEROARYL SUBSTITUTED INDAZOLES” (BAYER PHARMA AKTIENGESELLSCHAFT, priority 2013, published 2016)
